Data: patent US20150274719A1, “AMINO-SUBSTITUTED IMIDAZO[1,2-A]PYRIDINECARBOXAMIDES AND THEIR USE” (BAYER PHARMA AKTIENGESELLSCHAFT, priority 2012, published 2015)
Where a name gives a salt, the structure may show the parent alone.

Target: T1, recombinant guanylate cyclase reporter cell line (Rattus norvegicus, UniProt P19686+P20595)
T1 construct: expressed in transfected cells; host or cells: recombinant reporter cell line
T1 sequence (P19686 1-690): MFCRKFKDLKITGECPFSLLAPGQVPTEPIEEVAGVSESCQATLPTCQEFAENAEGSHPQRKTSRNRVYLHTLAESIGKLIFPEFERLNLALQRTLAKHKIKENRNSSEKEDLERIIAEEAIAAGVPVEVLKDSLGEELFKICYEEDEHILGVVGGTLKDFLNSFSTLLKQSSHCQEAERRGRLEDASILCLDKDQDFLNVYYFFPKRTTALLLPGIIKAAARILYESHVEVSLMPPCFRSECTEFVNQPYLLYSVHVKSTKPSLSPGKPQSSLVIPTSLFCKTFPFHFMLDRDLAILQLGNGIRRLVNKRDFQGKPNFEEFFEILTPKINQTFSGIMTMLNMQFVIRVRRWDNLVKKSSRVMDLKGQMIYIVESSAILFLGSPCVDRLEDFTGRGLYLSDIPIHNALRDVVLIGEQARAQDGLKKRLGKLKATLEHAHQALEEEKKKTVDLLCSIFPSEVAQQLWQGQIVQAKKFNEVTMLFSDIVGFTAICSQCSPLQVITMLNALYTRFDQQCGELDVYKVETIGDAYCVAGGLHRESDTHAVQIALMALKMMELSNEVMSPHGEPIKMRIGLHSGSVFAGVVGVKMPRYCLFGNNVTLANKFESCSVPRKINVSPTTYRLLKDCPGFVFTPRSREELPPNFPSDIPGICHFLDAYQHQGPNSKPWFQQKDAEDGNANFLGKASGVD
T1 sequence (P20595 1-619): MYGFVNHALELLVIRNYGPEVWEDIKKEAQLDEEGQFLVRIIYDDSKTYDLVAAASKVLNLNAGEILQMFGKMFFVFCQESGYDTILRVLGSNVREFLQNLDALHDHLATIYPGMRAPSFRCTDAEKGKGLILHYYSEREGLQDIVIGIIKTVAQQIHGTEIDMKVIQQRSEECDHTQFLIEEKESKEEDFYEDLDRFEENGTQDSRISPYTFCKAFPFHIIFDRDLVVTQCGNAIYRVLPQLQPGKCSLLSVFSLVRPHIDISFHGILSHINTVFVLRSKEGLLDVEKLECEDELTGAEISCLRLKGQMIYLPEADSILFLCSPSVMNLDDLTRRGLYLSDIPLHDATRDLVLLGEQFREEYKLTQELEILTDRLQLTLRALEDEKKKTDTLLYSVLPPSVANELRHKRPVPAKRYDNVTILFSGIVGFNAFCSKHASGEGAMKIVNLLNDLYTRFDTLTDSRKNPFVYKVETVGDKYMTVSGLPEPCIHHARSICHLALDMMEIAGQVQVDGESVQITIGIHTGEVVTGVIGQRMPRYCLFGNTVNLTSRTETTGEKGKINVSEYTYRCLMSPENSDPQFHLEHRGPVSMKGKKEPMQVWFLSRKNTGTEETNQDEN
Test: Action on recombinant guanylate cyclase reporter cell line
Format: cell-based
Conditions: in some cases mean values from individual determinations
Method in brief: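 Reported value is the minimal effective concentration (MEC), in some cases a mean of single runs, taken from a recombinant rat guanylate cyclase reporter cell line.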

## Cc1cc(OCc2c(F)cccc2F)c2nc(C)c(C(=O)NC34CC5CC(CC(N)(C5)C3)C4)n2c1 [Example 365, N-(3-aminoadamantan-1-yl)-8-[(2,6-difluorobenzyl)oxy]-2,6-dimethylimidazo[1,2-a]pyridine-3-carboxamide Formate]
  MEC (minimal effective concentration): 1.00 µM

## Cc1nc2c(OCc3c(F)cccc3F)cccn2c1C(=O)NC(C)CN (racemic) [Example 17, rac-N-(1-aminopropan-2-yl)-8-[(2,6-difluorobenzyl)oxy]-2-methylimidazo[1,2-a]pyridine-3-carboxamide dihydrochloride]
  MEC (minimal effective concentration): 1.00 µM

## Cc1nc2c(OCc3c(F)cccc3F)cc(Cl)cn2c1C(=O)NC1CNc2ccccc21 (racemic) [Example 49, rac-6-Chloro-8-[(2,6-difluorobenzyl)oxy]-N-(2,3-dihydro-1H-indol-3-yl)-2-methylimidazo[1,2-a]-pyridine-3-carboxamide]
  MEC (minimal effective concentration): 0.30 µM

## Cc1nc2c(OCc3c(F)cccc3F)cccn2c1C(=O)NC1CNCc2ccccc21 (single isomer, unassigned; ent-8) [Example 109, ent-8-[(2,6-difluorobenzyl)oxy]-2-methyl-N-(1,2,3,4-tetrahydroisoquinolin-4-yl)imidazo[1,2-a]pyridine-3-carboxamide]
  MEC (minimal effective concentration): 1.00 µM

## CCCc1nc2c(OCc3c(F)cccc3F)cc(C)cn2c1C(=O)NCC(C)(N)CC (stereo not drawn) [Example 327, ent-N-(2-amino-2-methylbutyl)-8-[(2,6-difluorobenzyl)oxy]-6-methyl-2-propylimidazo[1,2-a]pyridine-3-carboxamide]
  MEC (minimal effective concentration): 1.00 µM

## CCCC(C)(N)CNC(=O)c1c(C)nc2c(OCc3c(F)ccc(C4CC4)c3F)cc(C)cn12 (stereo not drawn) [Example 359, ent-N-(2-amino-2-methylpentyl)-8-[(3-cyclopropyl-2,6-difluorobenzyl)oxy]-2,6-dimethylimidazo[1,2-a]pyridine-3-carboxamide]
  MEC (minimal effective concentration): 3.00 µM

## Cc1cc(OCCC(C(F)(F)F)C(F)(F)F)c2nc(C)c(C(=O)NCC(C)(N)CC(C)C)n2c1 (racemic) [Example 258, rac-N-(2-Amino-2,4-dimethylpentyl)-2,6-dimethyl-8-[4,4,4-trifluoro-3-(trifluoromethyl)butoxy]-imidazo[1,2-a]pyridine-3-carboxamide]
  MEC (minimal effective concentration): 1.00 µM

## Cc1cc(OCc2c(F)cccc2F)c2nc(C)c(C(=O)NCC(C)(N)CC(C)C)n2c1 (single isomer, unassigned) [Example 220, ent-N-(2-Amino-2,4-dimethylpentyl)-8-[(2,6-difluorobenzyl)oxy]-2,6-dimethylimidazo[1,2-a]-pyridine-3-carboxamide]
  MEC (minimal effective concentration): 0.10 µM

## Cc1cc(OCc2c(F)cccc2F)c2nc(C)c(C(=O)NC3CCC4NCCC43)n2c1 (racemic) [Example 342, rac-8-[(2,6-Difluorobenzyl)oxy]-2,6-dimethyl-N-(octahydrocyclopenta[b]pyrrol-4-yl)imidazo[1,2-a]pyridine-3-carboxamide]
  MEC (minimal effective concentration): 1.00 µM

## Cc1cc(OCc2c(F)cccc2F)c2nc(C)c(C(=O)NC(CN)c3cnn(C)c3)n2c1 (racemic) [Example 387, rac-N-[2-amino-1-(1-methyl-1H-pyrazol-4-yl)ethyl]-8-[(2,6-difluorobenzyl)oxy]-2,6-dimethylimidazo[1,2-a]pyridine-3-carboxamide]
  MEC (minimal effective concentration): 10.0 µM

## Cc1cc(OCc2c(F)cccc2F)c2nc(C)c(C(=O)NC3CCNCC3(F)F)n2c1 (racemic) [Example 299, rac-8-[(2,6-difluorobenzyl)oxy]-N-(3,3-difluoropiperidin-4-yl)-2,6-dimethylimidazo[1,2-a]pyridine-3-carboxamide]
  MEC (minimal effective concentration): 0.10 µM

## Cc1cc(OCc2c(F)cccc2F)c2nc(C)c(C(=O)NC(CN)c3cccc(OC(F)F)c3)n2c1 (racemic) [Example 392, rac-N-{2-amino-1-[3-(difluoromethoxy)phenyl]ethyl}-8-[(2,6-difluorobenzyl)oxy]-2,6-dimethylimidazo[1,2-a]pyridine-3-carboxamide]
  MEC (minimal effective concentration): 1.00 µM
